Data set [1] can be described thus: In vitro liver microsomal stability assay. The format is in vitro ADME. As to conditions: 1 mg per mL liver microsome protein, NADPH-generating system, 5 microgram per mL compound, 37° C., 0-60 min, LC/MS/MS. As for the experimental part:
Liver microsomal stability assays are conducted at 1 mg per mL liver microsome protein with an NADPH-generating system in 2% NaHCO3 (2.2 mM NADPH, 25.6 mM glucose 6-phosphate, 6 units per mL glucose 6-phosphate dehydrogenase and 3.3 mM MgCl2). Test compounds are prepared as solutions in 20% acetonitrile-water and added to the assay mixture (final assay concentration 5 microgram per mL) and incubated at 37° C. Final concentration of acetonitrile in the assay should be <1%. Aliquots (50 μL) are taken out at times 0, 15, 30, 45, and 60 min, and diluted with ice cold acetonitrile (200 μL) to stop the reactions. Samples are centrifuged at 12,000 RPM for 10 min to precipitate proteins. Supernatants are transferred to microcentrifuge tubes and stored for LC/MS/MS analysis of the degradation half-life of the test compounds.
For orientation: Microsomes from liver hold many membrane-bound enzymes, among them those of drug oxidation.

The test system of data set [2] is hyperactivity induced by NMDA receptor antagonist MK-801. Particulars: Vanover et al. 2006; cited from earlier work.
Data set [3] has as its system DOI-induced head twitches. As to conditions: rodent; Vanover et al. 2006; cited from earlier work.
The next data set concerns dopamine release. Particulars: Li et al. 2005; cited from earlier work.

We go through two molecules from patent publication US20080280886A1, “SUBSTITUTED UREAS” (AUSPEX PHARMACEUTICALS, INC., priority 2007, published 2008).

As to `[2H]C([2H])(NC(=O)N(C1CCN(C([2H])([2H])[2H])CC1)C([2H])([2H])c1ccc(F)cc1)c1ccc(OC([2H])([2H])C(C)C)cc1` [Example 3, d9-1-(4-Fluorobenzyl)-3-(4-isobutoxybenzyl)-1-(1-methylpiperidin-4-yl)urea hemi-tartrate], in data set [1], the “increase in degradation half-life as compared to the non-isotopically enriched drug (Pimavanserin)” value was found to be 17%.
For `CC(C)COc1ccc(CNC(=O)N(Cc2ccc(F)cc2)C2CCN(C)CC2)cc1` [Pimavanserin, 1-(4-fluoro-benzyl)-3-(4-isobutoxy-benzyl)-1-(1-methyl-piperidin-4-yl)-urea], in data set [2], the “hyperactivity induced by MK-801 (dozocilpine)” value was “attenuate hyperactivity”. Further, the DOI-induced head twitches entry in data set [3] is on record as “reduce”. In addition, the “dopamine release when combined with haloperidol” value with dopamine release was “potentiate dopamine release”.
